One compound from patent US20100160251A1, “IMIDAZO COMPOUNDS” (priority 2006, published 2010) can be followed below.

In this experiment the test system is γδT lymphocyte. Nature of the experiment: Induction of γδT lymphocyte proliferation, human peripheral blood cells, BrdU labelling after 3 days of culture. The experiment is classed as cell-based. The protocol:
The activity on γδT lymphocyte proliferation is tested in the following way: human peripheral blood cells are cultured in the presence of an RPMI-type culture medium supplemented with L-glutamine (2 mM), penicillin/streptomycin (50 μg/50 IU/ml) and foetal calf serum (10%). The C-glycoside derivatives are added at various concentrations (10 to 0.05 mM), along with phytohemagglutin (PHA at […]), a positive control for lymphocyte proliferation.
Background: Incorporation of labelled thymidine or its analogues reports DNA synthesis.

SMILES strings stand for the structures.

`CC(=O)C[C@H]1O[C@H](CO)[C@@H](O[C@@H]2O[C@H](CO)[C@H](O)[C@H](O)[C@H]2O)[C@H](O)[C@H]1O` [Compound 1, 1-(C-β-D-lactopyranosyl)propan-2-one]: the “% stimulation relative to the control” value (concentration 0.05 (mM)) was found to be 100%; the “% stimulation relative to the control” value (concentration 0.1 (mM)) came out at 110%; the “% stimulation relative to the control” value (concentration 0.5 (mM)) came out at 82%; the “% stimulation relative to the control” value (concentration 1 (mM)) was determined as 108%; the “% stimulation relative to the control” value (concentration 5 (mM)) was 169%; the “% stimulation relative to the control” value (concentration 10 (mM)) turned out to be 214%.
